{"source": "patent US20210386743A1", "about": "“USE OF PDE9 INHIBITORS FOR TREATMENT” (The Johns Hopkins University, priority 2018, published 2021)", "format_in_all_cases": "in vivo, mouse", "key": {"[1]": {"tested_on": "C57BL6/N female mice with intact ovaries, HFD+TAC", "experiment": "Whole body metabolism (indirect calorimetry) in HFD+TAC female mice with intact ovaries", "details": "females with intact ovaries, HFD + pressure overload", "method": "(§1) All animals were fed a high fat diet (HFD) consisting of 60% kcal derived from fat was fed to both male and female C57BL6N mice for 3 months. Mice were divided into two groups: 1) Controls with intact ovaries; 2) Ovariectomized (Ovx) mice. Mice were assigned to receive trans-aortic constriction (TAC) or sham surgery after 3 months of HFD, and further randomized to placebo vehicle and PDE9-I (PDE9 inhibitor oral gavage 20 mg/kg twice daily) (FIG. 1). Comparison of Group 1 and 2 tests the efficacy of PDE9-I to ameliorate and/or reverse HFD and pressure-overload pathophysiology independent of sex hormone status.\n(§2) Whole body metabolism: Indirect calorimetry was used to assess metabolic parameters in live animals using the OxyMAX Comprehensive Lab Animal Monitoring System (Columbus Instruments, Columbus Ohio). Basic metabolic rate (VO2 consumption), VCO2 release and energy expenditure (EE) were measured by indirect calorimetry in high-fat-fed OVX mice groups treated with (Drug) and without PDE9 inhibitor (Control). Respiratory exchange ratio (RER) was calculated from VCO2 release-to-VO2 consumption ratio (VCO2 release/VO2 consumption). CLAMS cabinet was used to measure oxygen consumption rate at 22° C. (VO2), CO2 emission, respiratory exchange ratio, heat production, food consumption (g consumed per day), and total and ambulatory activity per day.\n(§3) In a second experiment, we examined the impact of PDE9 inhibition on female mice (C57BL6/N) subjected to HFD+TAC, but without ovariectomy and thus had normal estrogen levels."}, "male HFD+TAC mice [2]": {"tested_on": "male HFD+TAC mice", "experiment": "Body weight and body composition in male HFD+TAC mice", "details": "listed as PDE9-inhibitor", "method": "as §1\n(§4) Body composition: total fat mass, lean mass, and water content was determined by quantitative nuclear magnetic resonance (Echo-MRI®). In brief, after 20 weeks on the HFD, total body fat and lean body mass were assessed non-invasively by EchoMRI instrument. The analyzer delivers precise body composition measurements of fat, lean, free water, and total water masses in live animals weighing up to 100 grams. Conscious mice were placed in a constraint tube that was then inserted into the EchoMRI for a period of approximately 30 s and these measurements obtained.\nIn a third experiment, we exposed male mice of a similar starting age (5 weeks) to the same HFD protocol, and then same TAC protocol. […]"}, "[3]": {"tested_on": "OVX+HFD+TAC female mice (C57BL/6N)", "experiment": "Fasting blood markers of metabolic syndrome and liver histology in OVX+HFD+TAC female mice", "details": "for hepatic fat accumulation (liver histology): OVX females on HFD, vs no additional therapy; for fasting blood glucose / fasting blood total cholesterol / fasting total blood triglycerides: OVX+HFD+TAC females, end of study", "method": "as §1\n(§5) Female mice (C57BL/6N) were placed on a 60% fat diet starting at age 5-weeks. Two weeks later, there were randomized to receive bilateral oophorectomy or sham surgery. Cardiac imaging for ventricular function and morphometry was determined 2 months later. Between 8-11 weeks after ovariectomy, the mice underwent a second surgical procedure introducing a mild aortic constriction (TAC) in the transverse aorta to increase pressure load on the heart. The purpose of the TAC procedure was to stimulate the heart to synthesize natriuretic peptide, which is important for the generation of cyclic GMP which PDE9 regulates. Serial echocardiograms were obtained, and starting 1 week after TAC, mice were further randomized to receive vehicle control or a PDE9 inhibitor (PF-7943). Intact mouse metabolic studies, fat/lean mass determinations, and heart function were assessed. At terminal study, tissues were harvested for molecular signaling.\nMultiple biomarkers of metabolic syndrome and fat accumulation in the liver were improved in OVX+HFD+TAC female mice by PDE9 inhibition (FIG. 8). Data are shown at end-of study for fasting blood glucose, cholesterol, triglycerides, and histology of the liver."}, "male HFD+TAC mice [4]": {"tested_on": "male HFD+TAC mice", "experiment": "Whole body metabolism (indirect calorimetry) in male HFD+TAC mice", "method": "as §1, §2\nIn a third experiment, we exposed male mice of a similar starting age (5 weeks) to the same HFD protocol, and then same TAC protocol. As before, mice were randomized to either vehicle control or active PDE9-inhibitor starting 1 week after the TAC procedure. FIG. 11."}, "[5]": {"tested_on": "OVX+HFD+TAC female mice (C57BL/6N)", "experiment": "Body weight and body composition (EchoMRI) in OVX+HFD+TAC female mice", "details": "OVX+HFD+TAC females", "method": "as §1, §4, §5\nAfter 20 weeks on the HFD+ 8 wks mTAC, total body fat and lean body mass were assessed non-invasively by EchoMRI."}, "[6]": {"tested_on": "female mice, high fat diet induced obesity plus mild pressure stress", "experiment": "Cardiac disease in obese (HFD) female mice with mild pressure stress on the heart", "details": "females; high fat diet induced obesity and metabolic syndrome + mild pressure stress on the heart", "source_text": "Our laboratory has studied the impact of PDE9 inhibition on the heart, in particular in male mice subjected to pressure overload stress to induced cardiac hypertrophy, dysfunction, and pathological fibrosis. Over the past 1.5 years, we have turned to females, and in particular added the impact of high fat diet induced obesity and metabolic syndrome. This is then combined with a mild pressure stress on the heart to stimulate production of natriuretic peptides and some hypertrophy of the heart muscle. […] However, there was minimal impact on peripheral body weight, metabolism, or fat mass in these studies."}, "[7]": {"tested_on": "C57BL6/N female mice with intact ovaries, HFD+TAC", "experiment": "Body weight and body composition in HFD+TAC female mice with intact ovaries", "details": "females with intact ovaries, vs vehicle", "method": "as §1, §4, §3"}}, "note": "“Also recorded” adds a separate entry of the source.", "data": [{"smiles": "C[C@@H]1CN(Cc2ncccn2)C[C@H]1c1nc2c(cnn2C2CCOCC2)c(=O)[nH]1", "note": "[PF 04447943]", "values": [{"measurement": "calculated energy expenditure", "setting": "[1]", "result": "do not show any changes"}, {"measurement": "CO2 production", "setting": "[1]; listed as PDE9-I", "result": "no difference"}, {"measurement": "overall oxygen consumption", "setting": "[1]; listed as PDE9-I", "result": "no difference"}, {"measurement": "respiratory exchange ratio", "setting": "[1]; listed as PDE9-I", "result": "no difference"}, {"measurement": "CO2 production", "setting": "[1]; listed as PDE9i", "result": "do not show any changes"}, {"measurement": "overall oxygen consumption", "setting": "[1]; listed as PDE9i", "result": "do not show any changes"}, {"measurement": "respiratory exchange ratio", "setting": "[1]; listed as PDE9i", "result": "do not show any changes"}, {"measurement": "total body weight / body mass", "setting": "male HFD+TAC mice [2]", "result": "only borderline altered; also recorded: trend towards reduced body weight"}, {"measurement": "total fat mass / body fat", "setting": "male HFD+TAC mice [2]", "result": "significant reduction in total fat mass; also recorded: decline in body fat"}, {"measurement": "hepatic fat accumulation (liver histology)", "setting": "[3]; listed as PDE9-I", "result": "markedly reduced"}, {"measurement": "hepatic fat accumulation (liver histology)", "setting": "[3]; listed as PDE9 inhibitor", "result": "marked reduction of fat accumulation in the liver"}, {"measurement": "fasting blood glucose", "setting": "[3]; listed as PDE9-I", "result": "reduced"}, {"measurement": "fasting blood total cholesterol", "setting": "[3]; listed as PDE9-I", "result": "reduced"}, {"measurement": "fasting total blood triglycerides", "setting": "[3]; listed as PDE9-I", "result": "reduced"}, {"measurement": "fasting blood glucose", "setting": "[3]; listed as PDE9 inhibitor", "result": "reduced towards normal control levels"}, {"measurement": "fasting blood total cholesterol", "setting": "[3]; listed as PDE9 inhibitor", "result": "reduced towards normal control levels"}, {"measurement": "fasting total blood triglycerides", "setting": "[3]; listed as PDE9 inhibitor", "result": "reduced towards normal control levels"}, {"measurement": "CO2 generation", "setting": "male HFD+TAC mice [4]", "result": "did not display consistent changes"}, {"measurement": "RER", "setting": "male HFD+TAC mice [4]", "result": "did not display consistent changes"}, {"measurement": "energy expenditure (heat generation)", "setting": "male HFD+TAC mice [4]; listed as PDE9-inhibitor", "result": "did not demonstrate increases; also recorded: did not display consistent changes"}, {"measurement": "oxygen consumption (metabolic rate)", "setting": "male HFD+TAC mice [4]; listed as PDE9-inhibitor", "result": "did not demonstrate increases; also recorded: did not display consistent changes"}, {"measurement": "relative weight reduction compared to OVX mice on normal diet", "setting": "[5]", "result": "~30", "unit": "%"}, {"measurement": "absolute lean body mass", "setting": "[5]; EchoMRI", "result": "no change in absolute lean body mass"}, {"measurement": "percent body fat", "setting": "[5]; EchoMRI", "result": "reduced percent body fat"}, {"measurement": "percent lean body mass", "setting": "[5]; EchoMRI", "result": "increased percent lean body mass"}, {"measurement": "fat weight", "setting": "[5]; EchoMRI, 20 weeks HFD + 8 wks mTAC", "result": "significant decline in fat weight"}, {"measurement": "body weight decline", "setting": "[5]; PDE9 inhibitor treatment", "result": "~20", "unit": "%"}, {"measurement": "cardiac disease", "setting": "[6]", "result": "can indeed ameliorate cardiac disease"}, {"measurement": "fat mass", "setting": "[7]; listed as PDE0-I", "result": "no significant change"}, {"measurement": "lean mass", "setting": "[7]; listed as PDE0-I", "result": "no significant change"}, {"measurement": "percent fat mass", "setting": "[7]; listed as PDE0-I", "result": "no significant change"}, {"measurement": "percent lean mass", "setting": "[7]; listed as PDE0-I", "result": "no significant change"}, {"measurement": "total body weight", "setting": "[7]; listed as PDE0-I", "result": "no significant change"}, {"measurement": "fat mass", "setting": "[7]; listed as PDE9 inhibitor", "result": "did not have any alteration"}, {"measurement": "lean mass", "setting": "[7]; listed as PDE9 inhibitor", "result": "did not have any alteration"}, {"measurement": "percent fat mass", "setting": "[7]; listed as PDE9 inhibitor", "result": "did not have any alteration"}, {"measurement": "percent lean mass", "setting": "[7]; listed as PDE9 inhibitor", "result": "did not have any alteration"}, {"measurement": "total body weight", "setting": "[7]; listed as PDE9 inhibitor", "result": "did not have any alteration"}]}]}
